Measured values: patent US6492381B1, “Tricyclic carbamate compounds useful for inhibition of G-protein function and for treatment of proliferative diseases” (Schering Corp., priority 1993, dated 2002)
Like-named read-outs stand apart in the source and are kept apart here.

Assays:
[1] = system: Ras-CVLS processing in COS monkey kidney cells; assay: Cell-based assay: Ras-CVLS processing in transfected COS cells (immunoblot); settings: Primates; inhibition of Ras-CVLS processing in Ras-transfected COS cells
Description: 2. Cell-Based Assay: Transient expression of val^12-Ha-Ras-CVLS and val^12-Ha-Ras-CVLL in COS monkey kidney cells: Effect of farnesyl protein transferase inhibitors on Ras processing and on disordered cell growth induced by transforming Ras.
COS monkey kidney cells were transfected by electroporation with the plasmid pSV-SPORT (Gibco/BRL) containing a cDNA insert encoding either Ras-CVLS or Ras-CVLL, leading to transient overexpression of a Ras substrate for either farnesyl protein transferase or geranylgeranyl protein transferase I, respectively (see above).
Following electroporation, cells were plated into 6-well tissue culture dishes containing 1.5 ml of Dulbecco's-modified Eagle's media (GIBCO, Inc.) supplemented with 10% fetal calf serum and the appropriate farnesyl protein transferase inhibitors. After 24 hours, media was removed and fresh media containing the appropriate drugs was re-added.
48 hours after electroporation cells were examined under the microscope to monitor disordered cell growth induced by transforming Ras. Cells expressing transforming Ras become more rounded and refractile and overgrow the monolayer, reminiscent of the transformed phenotype. Cells were then photographed, washed twice with 1 ml of cold phosphate-buffered saline (PBS) and removed from the dish by scraping with a rubber policeman into 1 ml of a buffer containing 25 mM Tris, pH 8.0; 1 mM ethylenediamine tetraacetic acid; 1 mM phenylmethylsulfonyl fluoride; 50 μM leupeptin; and 0.1 μM pepstatin. Cells were lysed by homogenization and cell debris was removed by centrifugation at 2000×g for 10 min.
Cellular protein was precipitated by addition of ice-cold trichloroacetic acid and redissolved in 100 μl of SDS-electrophoresis sample buffer. Samples (5-10 μl) were loaded onto 14% polyacrylamide minigels (Novex, Inc.) and electrophoresed until the tracking dye neared the bottom of the gel. Proteins resolved on the gels were electroblotted onto nitrocellulose membranes for immunodetection.
Membranes were blocked by incubation overnight at 4° C. in PBS containing 2.5% dried milk and 0.5% Tween-20 and then incubated with a Ras-specific monoclonal antibody, Y13-259 (Furth, M. E., et al., (1982), Monoclonal antibodies to the p21 products of the transforming gene of Harvey murine sarcome virus and of the cellular ras gene family, J. Virol. 43: 294-304), in PBS containing 1% fetal calf serum for one hour at room temperature. After washing, membranes were incubated for one hour at room temperature with a 1:5000 dilution of secondary antibody, rabbit anti-rat IgG conjugated to horseradish peroxidase, in PBS containing 1% fetal calf serum. The presence of processed and unprocessed Ras-CVLS or Ras-CVLL was detected using a calorimetric peroxidase reagent (4-chloro-1-naphthol) as described by the manufacturer (Bio-Rad).

[2] = system: Normal human HEPM fibroblasts; assay: Cell Mat assay: inhibition of normal cell growth; assay type: cell-based; settings: Homo sapiens, Fibroblast, mIC50, normal cell monolayer
Experimental: (§1) Normal human HEPM fibroblasts were planted in 3.5 cm dishes at a density of 5×10^4 cells/dish in 2 ml growth medium, and incubated for 3-5 d to achieve confluence. Medium was aspirated from each dish and the indicator tumor cells, T24-BAG4 human bladder carcinoma cells expressing an activated H-ras gene, were planted on top of the fibroblast monolayer at a density of 2×10^3cells/dish in 2 ml growth medium, and allowed to attach overnight. Compound-induced colony inhibition was assayed by addition of serial dilutions of compound directly to the growth medium 24 h after tumor cell planting, and incubating cells for an additional 14 d to allow colony formation. Assays were terminated by rinsing monolayers twice with phosphate-buffered saline (PBS), fixing the monolayers with a 1% glutaraldehyde solution in PBS, then visualizing tumor cells by staining with X-Gal (Price, J., et al., Lineage analysis in the vertebrate nervous system by retrovirus-mediated gene transfer, Proc. Natl. Acad. Sci.84, 156-160(1987)). […] Both IC50 values were obtained by determining the density of tumor cells and mat cells by visual inspection and enumeration of cells per colony and the number of colonies under the microscope. The therapeutic index of the compound was quantitatively expressed as the ratio of mIC50/tIC50, with values greater than one indicative of tumor target specificity.

[3] = biological target: T1, geranylgeranyl protein transferase (GGPT) I (Rattus norvegicus, UniProt P53610+Q04631); assay: In vitro enzyme assay: inhibition of geranylgeranyl protein transferase I; assay type: biochemical
T1 construct: were partially purified from rat brain by ammonium sulfate fractionation followed by Q-Sepharose; from tissue; host or cells: rat brain
Description: (§2) 1. In vitro enzyme assays: Inhibition of farnesyl protein transferase and geranylgeranyl protein transferase.
Both farnesyl protein transferase (FPT) and geranylgeranyl protein transferase (GGPT) I were partially purified from rat brain by ammonium sulfate fractionation followed by Q-Sepharose (Pharmacia, Inc.) anion exchange chromatography essentially as described by Yokoyama et al (Yokoyama, K., et al., (1991). A protein geranylgeranyltransferase from bovine brain: Implications for protein prenylation specificity, Proc. Natl. Acad. Sci USA 88: 5302-5306, the disclosure of which is incorporated herein by reference thereto). Human farnesyl protein transferase was also expressed in E. coli, using cDNA clones encoding both the α and β subunits. The methods used were similar to those published (Omer, C. et al., (1993), Characterization of recombinant human farnesyl protein transferase: Cloning, expression, farnesyl diphosphate binding, and functional homology with yeast prenyl-protein transferase, Biochemistry 32:5167-5176). Human farnesyl protein transferase was partially-purified from the soluble protein fraction of E. coli as described above. the tricyclic farnesyl protein transferase inhibitors disclosed herein inhibited both human and rat enzyme with similar potencies. Two forms of val^12-Ha-Ras protein were prepared as substrates for these enzymes, differing in their carboxy terminal sequence. One form terminated in cysteine-valine-leucine-serine (Ras-CVLS) the other in cystein-valine-leucine-leucine (Ras-CVLL). Ras-CVLS is a substrate for the farnesyl protein transferase while Ras-CVLL is a substrate for geranylgeranyl protein transferase I. The cDNAs encoding these proteins were constructed so that the proteins contain an amino-terminal extension of 6 histidine residues. Both proteins were expressed in Escherichia coli and purified using metal chelate affinity chromatography. The radiolabelled isoprenyl pyrophosphate substrates, [^3H]farnesyl pyrophosphate and [^3H]geranylgeranyl pyrophosphate, were purchased from DuPont/New England Nuclear.
The geranylgeranyl protein transferase I assay was essentially identical to the farnesyl protein transferase assay described above, with two exceptions: [^3H]geranylgeranylpyrophosphate replaced farnesyl pyrophosphate as the isoprenoid donor and Ras-CVLL was the protein acceptor. This is similar to the assay reported by Casey et al (Casey, P. J., et al., (1991), Enzymatic modification of proteins with a geranylgeranyl isoprenoid, Proc. Natl. Acad. Sci, USA 88: 8631-8635, the disclosure of which is incorporated herein by reference thereto).

[4] = system: T24-BAG4 human bladder carcinoma cells expressing an activated H-ras gene; assay: Cell Mat assay: inhibition of tumor cell growth; assay type: cell-based; settings: for IC50: tIC50
Experimental: as §1

[5] = biological target: T2, farnesyl protein transferase (FPT) (Rattus norvegicus, UniProt Q02293+Q04631); assay: In vitro enzyme assay: inhibition of farnesyl protein transferase; assay type: biochemical
T2 construct: were partially purified from rat brain by ammonium sulfate fractionation followed by Q-Sepharose; from tissue; host or cells: rat brain
Experimental: as §2
Human farnesyl protein transferase was also expressed in E. coli, using cDNA clones encoding both the α and β subunits. […] Two forms of val^12-Ha-Ras protein were prepared as substrates for these enzymes, differing in their carboxy terminal sequence. One form terminated in cysteine-valine-leucine-serine (Ras-CVLS) the other in cystein-valine-leucine-leucine (Ras-CVLL). Ras-CVLS is a substrate for the farnesyl protein transferase while Ras-CVLL is a substrate for geranylgeranyl protein transferase I. The cDNAs encoding these proteins were constructed so that the proteins contain an amino-terminal extension of 6 histidine residues. Both proteins were expressed in Escherichia coli and purified using metal chelate affinity chromatography. The radiolabelled isoprenyl pyrophosphate substrates, [^3H]farnesyl pyrophosphate and [^3H]geranylgeranyl pyrophosphate, were purchased from DuPont/New England Nuclear.
The reaction was allowed to proceed for 30 minutes at room temperature and then stopped with 0.5 ml of 4% sodium dodecyl sulfate (SDS) followed by 0.5 ml of cold 30% trichloracetic acid (TCA). Samples were allowed to sit on ice for 45 minutes and precipitated Ras protein was then collected on GF/C filter paper mats using a Brandel cell harvester. […] Percent inhibition was calculated relative to the DMSO vehicle control.

[6] = Ras-CVLS farnesylation, partially purified rat brain FPT, read-out: FPT IC50

Row | Compound | IC50 [1] | IC50 [2] | IC50 ([4]; Homo sapiens) | IC50 [5, 6] | also measured
1 | CCOC(=O)N1CCC(C2c3ccc(Cl)cc3C=Cc3ccc[n+]([O-])c32)CC1 (stereo not shown) | – | – | – | – | melting point: 78.6 to 89.4 °C
2 | O=C(Oc1cccnc1)N1CCC(C2c3ccc(Cl)cc3C=Cc3cccnc32)CC1 (stereo not shown) | – | – | – | – | melting point: 102.1 to 103.9 °C
3 | CCSC(=O)N1CCC(=C2c3ccc(Cl)cc3CCc3cccnc32)CC1 [Compound 500.00] | 22 µM | 25 µM | 25 µM | 1.6 µM | selective for FPT inhibition (versus GGPT) ([3]; FPT versus GGPT): at least 31 fold; inhibition at 50 µM ([3]; at 50 μM): 7%; selective antiproliferative activity against Ras-transformed cells versus normal cells [4]: no
4 | CCOC(=O)N1CCN(C2c3ccc(Cl)cc3CCc3cccnc32)CC1 (stereo not shown) [Compound 550.00, Ethyl 4-(8-chloro-6,11-dihydro-11H-benzo[5,6]cyclohepta[1,2-b]pyridin-11-yl)-1-piperazinecarboxylate] | > 20 µM | > 50 µM | 18 µM | 7.2 µM | IC50 [4]: 25 µM
5 | O=C(Oc1ccccc1)N1CCC(=C2c3ccc(Cl)cc3CCc3cccnc32)CC1 [Compound 565.00] | 6.7 µM | – | – | 0.84 µM | –
6 | CC(C)COC(=O)N1CCC(=C2c3ccc(Cl)cc3CCc3cccnc32)CC1 [Compound 575.00] | 9.9 µM | > 50 µM | 37 µM | 4.4 µM | –
7 | O=C(Sc1ccccc1)N1CCC(=C2c3ccc(Cl)cc3CCc3cccnc32)CC1 [Compound 595.00, 4-(8-chloro-5,6-dihydro-11H-benzo[5,6]cyclohepta[1,2-b]-pyridin-11ylidene)-1-piperinecarbothioic Acid, S-phenyl Ester] | 5.1 µM | > 50 µM | 18 µM | – | melting point: 175 to 177 °C
8 | O=C(Oc1cccnc1)N1CCN([C@@H]2c3ccc(Cl)cc3CCc3cccnc32)CC1 [Compound 600.00, (+) 3-pyridyl 4-(8-chloro-6,11-dihydro-5H-benzo[5,6]-cyclohepta[1,2-b]pyridin-11(R)-yl)-1-piperazine Carboxylate] | 6.9 µM | 50 µM | 12.5 µM | – | IC50 [5]: 1.28 µM
9 | O=C(Oc1cccnc1)N1CCN([C@H]2c3ccc(Cl)cc3CCc3cccnc32)CC1 [Compound 608.00, (−) 3-pyridyl 4-(8-chloro-6,11-dihydro-5H-benzo[5,6]-cyclohepta[1,2-b]pyridin-11(S)-yl)-1-piperazinecarboxylate] | 3.9 µM | > 50 µM | 37 µM | – | IC50 [5]: 0.82 µM
10 | O=C(Oc1cccnc1)N1CCN(C2c3ccc(Cl)cc3CCc3cccnc32)CC1 (stereo not shown) [Compound 610.00, 3-pyridyl 4-(8-chloro-6,11-dihydro-5H-benzo[5,6]-cyclohepta[1,2-b]pyridin-11-yl)-1-piperazinecarboxylate] | 3 µM | – | – | – | IC50 [5]: 0.5 µM
11 | O=C(Oc1ccccc1)N1CCN(C2c3ccc(Cl)cc3CCc3cccnc32)CC1 (stereo not shown) [Compound 612.00] | 4.8 µM | > 50 µM | 50 µM | – | selective antiproliferative activity against Ras-transformed cells versus normal cells [4]: little; IC50 [5]: 0.8 µM
12 | CCOC(=O)N1CCC(C2c3ccc(Cl)cc3CCc3cccnc32)CC1 (stereo not shown) [Compound 618.00] | 20.5 µM | > 50 µM | > 50 µM | 1.22 µM | IC50 ([3]; Ras-CVLL as acceptor, read-out: GGPT IC 50): > 50 µM; selective antiproliferative activity against Ras-transformed cells versus normal cells [4]: little
13 | CCOC(=O)N1CCC(=C2c3ccc(Cl)cc3CCc3c(On4nnc5ccccc54)ccnc32)CC1 [Compound 654.00, Ethyl 4-[4-[(1H-benzotriazol-1-yl)oxy]-8-chloro-5,6-dihydro-11H-benzo[5,6]cyclohepta[1,2-b]pyridin-11-ylidene]-1-piperidine Carbamate] | – | – | – | 11.6 µM | melting point: 181.5 to 183.9 °C
14 | CN1CCC(OC(=O)N2CCN(C3c4ccc(Cl)cc4CCc4cc(Br)cnc43)CC2)CC1 (stereo not shown) [Compound 803.00] | > 5 µM | – | – | 0.31 µM | –
